For 34 compounds, DNAUC results are on record in ChEMBL document CHEMBL1614631, “Comparative evaluation of oral systemic exposure of 56 xenobiotics in rat, dog, monkey and human” (Xenobiotica, 2005).

Molecules are shown by their SMILES.

Data set [1] in a line: Dose normalised AUC in rat after po administration. Particulars: in vivo.
The nature of data set [2]: Dose normalised AUC in dog after po administration. Particulars: in vivo.
Data set [3] can be described thus: Dose normalised AUC in human after po administration. Particulars: in vivo.
The nature of data set [4]: Dose normalised AUC in monkey after po administration. The following applies: macaca, in vivo.

Take `Cn1cc(/C=C2/C(=O)N3C(C(=O)O)=CS[C@H]23)nn1`: the DNAUC in data set [1] was determined as 0.29 kg·min/L; in data set [2], 3.33 kg·min/L; in data set [3], 5 kg·min/L; in data set [4] it was 0.45 kg·min/L.
In the same order, the values of `CC1=NC(=O)C(CCN(C(C)C)C(C)C)(c2ccccc2)C2CCCCN12` (stereo unspecified) [ACTISOMIDE] are 14.49 kg·min/L, 71.7 kg·min/L, 51.51 kg·min/L and 26.46 kg·min/L.
In the same order, the values of `CC[C@H]1OC(=O)[C@H](C)[C@@H](O[C@H]2C[C@@](C)(OC)[C@@H](O)[C@H](C)O2)[C@H](C)[C@@H](O[C@@H]2O[C@H](C)C[C@H](N(C)C)[C@H]2O)[C@](C)(O)C[C@@H](C)CN(C)[C@H](C)[C@@H](O)[C@]1(C)O` [AZITHROMYCIN] are 11.42 kg·min/L, 140.4 kg·min/L, 33.15 kg·min/L and 17.52 kg·min/L.
As for `C1=C(c2ccccc2)CCN(C[C@@H]2CCC=C(c3ccccc3)C2)C1` [CI-1007], the DNAUC was determined as 2.65 kg·min/L in data set [1], 1.46 kg·min/L in data set [2], 2.63 kg·min/L in data set [3] and 2.34 kg·min/L in data set [4].
For `O=C(O)c1cn(C2CC2)c2cc(N3CCNCC3)c(F)cc2c1=O` [CIPROFLOXACIN] the same measures were 9.36 kg·min/L, 32.75 kg·min/L, 77.03 kg·min/L and 85.2 kg·min/L.
For `CN(C)CCCC1(c2ccc(F)cc2)OCc2cc(C#N)ccc21` (stereo unspecified) [CITALOPRAM] the same measures were 5.88 kg·min/L, 8.75 kg·min/L, 200 kg·min/L and 9.85 kg·min/L.
For `O=C1CN=C(c2ccccc2Cl)c2cc([N+](=O)[O-])ccc2N1` [CLONAZEPAM] the same measures were 3.47 kg·min/L, 24 kg·min/L, 590 kg·min/L and 36.8 kg·min/L.
With `O=c1ccc2ccccc2o1` [COUMARIN], the DNAUC stood at 37.5 kg·min/L in data set [1], 40.38 kg·min/L in data set [2], 2.03 kg·min/L in data set [3] and 31.8 kg·min/L in data set [4].
As to `CCN[C@@H](C)Cc1cccc(C(F)(F)F)c1` [DEXFENFLURAMINE], the DNAUC in data set [1] stood at 7.2 kg·min/L; in data set [2], 6.72 kg·min/L; in data set [3], 80 kg·min/L; in data set [4] it was 4.38 kg·min/L.
As to `CC(C)N(CCC(C(N)=O)(c1ccccc1)c1ccccn1)C(C)C` (stereo unspecified) [DISOPYRAMIDE], the DNAUC amounted to 6.07 kg·min/L in data set [1], 101.6 kg·min/L in data set [2], 550.48 kg·min/L in data set [3] and 2.2 kg·min/L in data set [4].
In the same order, the values of `CC[C@H]1OC(=O)[C@H](C)[C@@H](O[C@H]2C[C@@](C)(OC)[C@@H](O)[C@H](C)O2)[C@H](C)[C@@H](O[C@@H]2O[C@H](C)C[C@H](N(C)C)[C@H]2O)[C@](C)(O)C[C@@H](C)C(=O)[C@H](C)[C@@H](O)[C@]1(C)O` [ERYTHROMYCIN] are 1.88 kg·min/L, 31.38 kg·min/L, 36.8 kg·min/L and 1.32 kg·min/L.
Consider `C#C[C@]1(O)CC[C@H]2[C@@H]3CCc4cc(O)ccc4[C@H]3CC[C@@]21C` [ETHINYL ESTRADIOL], for which the DNAUC was 0.46 kg·min/L in data set [1], 4.5 kg·min/L in data set [2], 75.45 kg·min/L in data set [3] and 0.68 kg·min/L in data set [4].
Take `CCC1(C)CC(=O)NC1=O` (stereo unspecified) [ETHOSUXIMIDE]: the DNAUC came out at 285.71 kg·min/L in data set [1], 2166.68 kg·min/L in data set [2], 6666.67 kg·min/L in data set [3] and 2792.79 kg·min/L in data set [4].
In the same order, the values of `COc1ccc(C(C)C)cc1CN[C@H]1C2CCN(CC2)[C@H]1C(c1ccccc1)c1ccccc1` [EZLOPITANT] are 2.36 kg·min/L, 10.82 kg·min/L, 125 kg·min/L and 0.6 kg·min/L.
`O=C(O)C(Cl)c1ccc(C2CCCCC2)c(Cl)c1` (stereo unspecified) [FENCLORAC]: the DNAUC in data set [1] was 630.2 kg·min/L; in data set [2], 2454.09 kg·min/L; in data set [3] it was 2651.33 kg·min/L; in data set [4] it was 491.65 kg·min/L.
Take `CN1CCN(c2c(F)cc3c(=O)c(C(=O)O)cn(CCF)c3c2F)CC1` [FLEROXACIN]: the DNAUC turned out to be 152.4 kg·min/L in data set [1], 618 kg·min/L in data set [2], 432.41 kg·min/L in data set [3] and 133.54 kg·min/L in data set [4].
For `CC1(C)O[C@@H]2C[C@H]3[C@@H]4C[C@H](F)C5=CC(=O)C=C[C@]5(C)[C@H]4[C@@H](O)C[C@]3(C)[C@]2(C(=O)CO)O1` [FLUNISOLIDE] the same measures were 107.25 kg·min/L, 63.58 kg·min/L, 16.42 kg·min/L and 2.1 kg·min/L.
For the compound `C[C@H](C(=O)O)c1ccc2oc(-c3ccc(F)cc3)nc2c1` [FLUNOXAPROFEN], the DNAUC in data set [1] was determined as 14620.68 kg·min/L; in data set [2] it was 960.78 kg·min/L; in data set [3], 2794 kg·min/L; in data set [4], 1464.8 kg·min/L.
Regarding `CC(C(=O)O)c1ccc(-c2ccccc2)c(F)c1` (stereo unspecified) [FLURBIPROFEN], the DNAUC in data set [1] came to 1042.5 kg·min/L; in data set [2] it was 4718.5 kg·min/L; in data set [3], 2900.56 kg·min/L; in data set [4], 2364.5 kg·min/L.
In the case of `CC(C)n1c(/C=C/C(O)CC(O)CC(=O)O)c(-c2ccc(F)cc2)c2ccccc21` (stereo unspecified) [FLUVASTATIN], the DNAUC in data set [1] is 195 kg·min/L; in data set [2] it was 82.11 kg·min/L; in data set [3], 49.3 kg·min/L; in data set [4] it was 5.37 kg·min/L.
Consider `NS(=O)(=O)c1cc(C(=O)O)c(NCc2ccco2)cc1Cl` [FUROSEMIDE], for which the DNAUC in data set [1] came to 44.73 kg·min/L; in data set [2] it was 57.84 kg·min/L; in data set [3], 184.62 kg·min/L; in data set [4], 43.2 kg·min/L.
For `NCC1(CC(=O)O)CCCCC1` [GABAPENTIN], the DNAUC in data set [1] was 87.72 kg·min/L; in data set [2], 290.4 kg·min/L; in data set [3], 369.82 kg·min/L; in data set [4], 156.24 kg·min/L.
Regarding `CC(=O)[C@H]1CC[C@H]2[C@@H]3CC[C@H]4C[C@](C)(O)CC[C@]4(C)[C@H]3CC[C@]12C` [GANAXOLONE], the DNAUC is 0.76 kg·min/L in data set [1], 77.25 kg·min/L in data set [2], 5.65 kg·min/L in data set [3] and 1.39 kg·min/L in data set [4].
`CC(=O)NCCOC(=O)C(Oc1cccc(C(F)(F)F)c1)c1ccc(Cl)cc1` (stereo unspecified) [HALOFENATE]: the DNAUC amounted to 9183.98 kg·min/L in data set [1], 390.13 kg·min/L in data set [2], 15037.59 kg·min/L in data set [3] and 3918.28 kg·min/L in data set [4].
As for `CCCCCNC(=O)c1coc([C@H]2[C@@H](Cc3ccccc3CCC(=O)O)[C@@H]3CC[C@H]2O3)n1` [IFETROBAN], the DNAUC was determined as 2.86 kg·min/L in data set [1], 9.48 kg·min/L in data set [2], 77.32 kg·min/L in data set [3] and 13.02 kg·min/L in data set [4].
For `CC(C)(C)NC(=O)[C@@H]1CN(Cc2cccnc2)CCN1C[C@@H](O)C[C@@H](Cc1ccccc1)C(=O)N[C@H]1c2ccccc2C[C@H]1O.O` [INDINAVIR] the same measures were 3.13 kg·min/L, 46.1 kg·min/L, 52.98 kg·min/L and 5.34 kg·min/L.
For `COc1ccc2c(c1)c(CC(=O)O)c(C)n2C(=O)c1ccc(Cl)cc1` [INDOMETHACIN] the same measures were 2056 kg·min/L, 793.3 kg·min/L, 488.62 kg·min/L and 133.1 kg·min/L.
Turning to `O=C(c1ccccc1)c1ccc2n1CCC2C(=O)O` (stereo unspecified) [KETOROLAC], the DNAUC was 285 kg·min/L in data set [1], 1352.94 kg·min/L in data set [2], 1256.47 kg·min/L in data set [3] and 1912.26 kg·min/L in data set [4].
`CCN(CC)CC(=O)Nc1c(C)cccc1C` [LIDOCAINE]: the DNAUC in data set [1] stood at 1.64 kg·min/L; in data set [2], 8.38 kg·min/L; in data set [3], 38.04 kg·min/L; in data set [4], 3.79 kg·min/L.
For `Cc1cnc(NC(=O)C2=C(O)c3ccccc3S(=O)(=O)N2C)s1` [MELOXICAM], the DNAUC was 4998 kg·min/L in data set [1], 6870 kg·min/L in data set [2], 6655.81 kg·min/L in data set [3] and 2856 kg·min/L in data set [4].
In the same order, the values of `COCCc1ccc(OCC(O)CNC(C)C)cc1` (stereo unspecified) [METOPROLOL] are 58 kg·min/L, 15.8 kg·min/L, 25.33 kg·min/L and 8.33 kg·min/L.
On to `Cc1ncc2n1-c1ccc(Cl)cc1C(c1ccccc1F)=NC2` [MIDAZOLAM], for which the DNAUC worked out at 1.64 kg·min/L in data set [1], 23.79 kg·min/L in data set [2], 66.67 kg·min/L in data set [3] and 4.17 kg·min/L in data set [4].
On to `CCCCN1C[C@H](O)[C@@H](O)[C@H](O)[C@H]1CO` [MIGLUSTAT], for which the DNAUC was 16.6 kg·min/L in data set [1], 204 kg·min/L in data set [2], 358.71 kg·min/L in data set [3] and 166.88 kg·min/L in data set [4].
For `COc1c(N2C[C@@H]3CCCN[C@@H]3C2)c(F)cc2c(=O)c(C(=O)O)cn(C3CC3)c12` [MOXIFLOXACIN] the same measures were 18.35 kg·min/L, 245.95 kg·min/L, 372.73 kg·min/L and 45.09 kg·min/L.
